For this test, the target named is T1, human sodium-glucose cotransporter 2 (SGLT2) (Homo sapiens, UniProt P31639).
T1 construct: expressed in transfected cells; host or cells: NIH3T3 (mouse fibroblast) cells expressing hSGLT2
T1 sequence (P31639 1-672): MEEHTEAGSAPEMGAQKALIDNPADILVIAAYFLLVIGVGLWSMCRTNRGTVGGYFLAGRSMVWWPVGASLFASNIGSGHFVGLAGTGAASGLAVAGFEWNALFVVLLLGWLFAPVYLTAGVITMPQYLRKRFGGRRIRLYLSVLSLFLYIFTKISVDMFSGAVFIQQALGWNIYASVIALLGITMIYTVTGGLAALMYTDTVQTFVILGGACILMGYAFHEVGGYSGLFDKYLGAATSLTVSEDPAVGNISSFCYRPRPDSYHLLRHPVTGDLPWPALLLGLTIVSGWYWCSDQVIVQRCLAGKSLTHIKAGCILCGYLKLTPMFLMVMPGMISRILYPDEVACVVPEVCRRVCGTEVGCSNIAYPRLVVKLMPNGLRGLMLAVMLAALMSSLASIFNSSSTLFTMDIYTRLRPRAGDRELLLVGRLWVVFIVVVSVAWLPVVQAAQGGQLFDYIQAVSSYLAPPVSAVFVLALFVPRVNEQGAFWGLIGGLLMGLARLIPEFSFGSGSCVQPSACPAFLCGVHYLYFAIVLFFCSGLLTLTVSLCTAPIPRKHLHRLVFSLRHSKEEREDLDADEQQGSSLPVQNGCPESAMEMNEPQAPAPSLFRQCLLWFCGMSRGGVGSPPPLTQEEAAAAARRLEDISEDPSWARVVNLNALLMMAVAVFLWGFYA
Kind of test: In vitro SGLT2 inhibition, methyl-α-D-[U-14C]glucopyranoside uptake in NIH3T3-hSGLT2 cells. It is filed as cell-based. Conditions: for inhibition at 0.01 µM: SGLT2, 10 nM, read-out: % Inhibition rate ± SD 10 nM; for inhibition at 0.1 µM: SGLT2, 100 nM, read-out: % Inhibition rate ± SD 100 nM. The method, then: Inhibition of the compounds of formula I against human sodium-glucose cotransporter 2 (SGLT2) was determined experimentally and the experimental procedures were carried out as reference^1.
Methyl-α-D-[U-^14C] glucopyranoside (Perkin Elmer) Dimethylsulfoxide (Genebase, Prod No: 0231)
(1) Primary screening of hSGLT2 are conducted with two concentrations, 100 nM and 10 nM;
SGLT2 transports D-glucose at 1:1 sodium-glucose ratio, glucose is replaced by the non-metabolic and isotope labeled methyl-aD-[U-^14C] glucopyranoside and methyl-aD-glucopyranoside, and the amount of isotope transferred into the cells was determined.
1) 0.2% gelatin in a 96-well plate was put in a 37° C. incubator for further use;
2) NIH3T3-hSGLT2 cells were injected into 96-well plates, 40000/well, and 100 μL culture medium per well:
3) the fluid was changed in the next day, and sodium butyrate was added into medium at a final concentration of 2 mM;
4) wash the cells with 100 μL of KRH—Na^+ for 3 times and incubate cells with 50 μL for 30 minutes. Cells were changed to 50 μL of compound in KRH—Na^+, uptake buffer (KRH—Na^+ and methyl-α-D-[U-^14C]glucopyranoside and ⅙ mM methyl-α-D-glucopyranoside at 10 μL per well) was added; KRH-acetylcholine solution was used as background control instead of KRH-Na^+
5) washed with 100 μL PBS for 3 times, dried, 50 μL lysate and 150 μL scintillation fluid were added, the membrane was covered and flattened, shaken on a shaker to mix thoroughly, centrifuged at 1500 rpm at 4° C. for 3 min, taken out and read;
6) the results were analyses.
The inhibition rate (% Inhibiton) of each sample at each concentration was calculated by dividing the value of the compound well value minus the background value by the value of the DMSO control well value minus the background value.
IC50 is calculated as follows: […]
The y value is the activity or inhibition percent, the x value is the concentration of the corresponding compound, top (the maximum y value of the curve), bottom (the minimum y value of the curve).

A word on the inhibition: it is the drop in the measured response relative to a control, in per cent.

`C[C@H]1O[C@]2(OCc3ccc(Cc4ccc(Cl)s4)cc32)[C@H](O)[C@@H](O)[C@@H]1O` [Example A10, (1S,3′R,4′S,5′S,6′R)-6′-methyl-6-((5-chlorothienyl)-2-methyl)-3′,4′,5′,6′-tetrahydro-3H-spiro [isobenzofuran-1,2′-pyran]-3′,4′,5′-triol]: the inhibition at 0.01 µM was determined as 28.1 ± 25.8% and the inhibition at 0.1 µM came out at 45.8 ± 10.2%.

On to `C[C@H]1O[C@]2(OCc3ccc(Cc4cc5ccccc5o4)cc32)[C@H](O)[C@@H](O)[C@@H]1O` [Example A16, (1S,3′R,4′S,5′S,6′R)-6′-methyl-6-(benzo[b]furan-2-methyl)-3′,4′,5′,6′-tetrahydro-3H-spiro [isobenzofuran-1,2′-pyran]-3′,4′,5′-triol], for which the inhibition at 0.01 µM was 27.5 ± 19.6% and the inhibition at 0.1 µM is 39 ± 16.1%.

In the case of `C[C@H]1O[C@]2(OCc3ccc(Cc4ccc(-c5ccccn5)s4)cc32)[C@H](O)[C@@H](O)[C@@H]1O` [Example A13, (1S,3′R,4′S,5′S,6′R)-6′-methyl-6-((5-(2-pyridyl)thienyl)-2-methyl)-3′,4′,5′,6′-tetrahydro-3H-spiro[isobenzofuran-1,2′-pyran]-3′,4′,5′-triol], the inhibition at 0.01 µM was determined as 31 ± 30.5% and the inhibition at 0.1 µM was 46.9 ± 8.6%.

On to `C[C@H]1O[C@]2(OCc3cc(Cl)c(Cc4ccc5occc5c4)cc32)[C@H](O)[C@@H](O)[C@@H]1O` [Example A106, (1S,3′R,4′S,5′S,6′R)-6-(benzofuran-5-ylmethyl)-5-chloro-6′-methyl-3′,4′,5′,6′-tetrahydro-3H-spiro[isobenzofuran-1,2′-pyran]-3′,4′,5′-triol], for which the inhibition at 0.01 µM was 4.8 ± 3.9% and the inhibition at 0.1 µM was 50.8 ± 7.5%.

`CC(C)c1ccc(Cc2ccc3c(c2)[C@]2(OC3)O[C@H](C)[C@@H](O)[C@H](O)[C@H]2O)cc1` [Example A4, (1S,3′R,4′S,5′S,6′R)-6′-methyl-6-(4-isopropylbenzyl)-3′,4′,5′,6′-tetrahydro-3H-spiro[isobenzofuran-1,2′-pyran]-3′,4′,5′-triol]: the inhibition at 0.01 µM was found to be 34.1 ± 23.6% and the inhibition at 0.1 µM is 42.2 ± 3.5%.

`Cc1ccc(Cc2ccc3c(c2)[C@]2(OC3)O[C@H](C)[C@@H](O)[C@H](O)[C@H]2O)cc1` [Example A1, (1S,3′R,4′S,5′S,6′R)-6′-methyl-6-(4-methylbenzyl)-3′,4′,5′,6′-tetrahydro-3H-spiro[isobenzofuran-1,2′-pyran]-3′,4′,5′-triol]: the inhibition at 0.01 µM came out at 21.2 ± 14.4% and the inhibition at 0.1 µM was 26.9 ± 9.1%.

As for `C[C@H]1O[C@]2(OCc3cc(Cl)c(Cc4ccc(-c5ccccn5)s4)cc32)[C@H](O)[C@@H](O)[C@@H]1O` [Example A33], the inhibition at 0.01 µM was found to be 25 ± 9.3% and the inhibition at 0.1 µM was found to be 20.7 ± 7.5%.

`CC(=O)c1ccc(Cc2cc3c(cc2Cl)CO[C@]32O[C@H](C)[C@@H](O)[C@H](O)[C@H]2O)s1` [Example A117, 1-(5-(((1S,3′R,4′S,5′S,6′R)-5-chloro-3′,4′,5′-trihydroxy-6′-methyl-3′,4′,5′,6′-tetrahydro-3H-spiro[isobenzofuran-1,2′-pyran]-6-yl)methyl)thiophene-2-yl)ethanone]: the inhibition at 0.01 µM was found to be 30.1 ± 1% and the inhibition at 0.1 µM stood at 22.6 ± 8.3%.

Consider `CCCc1ccc(Cc2ccc3c(c2)[C@]2(OC3)O[C@H](C)[C@@H](O)[C@H](O)[C@H]2O)s1` [Example A9, (1S,3′R,4′S,5′S,6′R)-6′-methyl-6-((5-propylthienyl)-2-methyl)-3′,4′,5′,6′-tetrahydro-3H-spiro [isobenzofuran-1,2′-pyran]-3′,4′,5′-triol], for which the inhibition at 0.01 µM turned out to be 34.7 ± 24% and the inhibition at 0.1 µM was found to be 52.8 ± 15.5%.

Consider `C[C@H]1O[C@]2(OCc3ccc(Cc4ccc(-c5ccc(F)cc5)s4)cc32)[C@H](O)[C@@H](O)[C@@H]1O` [Example A11, (1S,3′R,4′S,5′S,6′R)-6′-methyl-6-((5-(4-fluorophenyl)thienyl)-2-methyl)-3′,4′,5′,6′-tetrahydro-3H-spiro[isobenzofuran-1,2′-pyran]-3′,4′,5′-triol], for which the inhibition at 0.01 µM was 29.4 ± 11.1% and the inhibition at 0.1 µM worked out at 31.4 ± 8.1%.

Turning to `CCCc1ccc(Cc2ccc3c(c2)[C@]2(OC3)O[C@H](C)[C@@H](O)[C@H](O)[C@H]2O)cc1` [Example A3, (1S,3′R,4′S,5′S,6′R)-6′-methyl-6-(4-propylbenzyl)-3′,4′,5′,6′-tetrahydro-3H-spiro[isobenzofuran-1,2′-pyran]-3′,4′,5′-triol], the inhibition at 0.01 µM was 23.1 ± 18.5% and the inhibition at 0.1 µM is 31 ± 9.7%.

Consider `Cc1ccc(Cc2ccc3c(c2)[C@]2(OC3)O[C@H](C)[C@@H](O)[C@H](O)[C@H]2O)s1` [Example A7, (1S,3′R,4′S,5′S,6′R)-6′-methyl-6-((5-methylthienyl)-2-methyl)-3′,4′,5′,6′-tetrahydro-3H-spiro [isobenzofuran-1,2′-pyran]-3′,4′,5′-triol], for which the inhibition at 0.01 µM was 15.7 ± 25.2% and the inhibition at 0.1 µM was determined as 27.9 ± 1.9%.

Regarding `C#Cc1cc2c(cc1Cc1ccc(CC)s1)[C@]1(OC2)O[C@H](C)[C@@H](O)[C@H](O)[C@H]1O` [Example A85, (1S,3′R,4′S,5′S,6′R)-5-ethynyl-6′-methyl-6-((5-ethylthienyl)-2-methyl)-3′,4′,5′,6′-tetrahydro-3H-spiro[isobenzofuran-1,2′-pyran]-3′,4′,5′-triol], the inhibition at 0.01 µM stood at 33.9 ± 14.1% and the inhibition at 0.1 µM amounted to 50.4 ± 16.9%.

On to `C[C@H]1O[C@]2(OCc3cc(Cl)c(C(=O)c4ccc(C(F)(F)F)c(F)c4)cc32)[C@H](O)[C@@H](O)[C@@H]1O` [Example A112, ((1S,3′R,4′S,5′S,6′R)-5-chloro-3′,4′,5′-trihydroxy-6′-methyl-3′,4′,5′,6′-tetrahydro-3H-spiro[isobenzofuran-1,2′-pyran]-6-yl)(3-fluoro-4-(trifluoromethyl)phenyl)ketone], for which the inhibition at 0.01 µM turned out to be 34.9 ± 23% and the inhibition at 0.1 µM was found to be 44.3 ± 15.6%.

`CCOCCc1ccc(Cc2cc3c(cc2Cl)CO[C@]32O[C@H](C)[C@@H](O)[C@H](O)[C@H]2O)s1` [Example A115, (1S,3′R,4′S,5′S,6′R)-5-chloro-6-((5-(2-ethoxyethyl)thiophene-2-yl)methyl)-6′-methyl-3′,4′,5′,6′-tetrahydro-3H-spiro[isobenzofuran-1,2′-pyran]-3′,4′,5′-triol]: the inhibition at 0.01 µM is 78.1 ± 5.1% and the inhibition at 0.1 µM came to 53.8 ± 5.5%.

As for `CCc1ccc(C(O)c2cc3c(cc2Cl)CO[C@]32O[C@H](C)[C@@H](O)[C@H](O)[C@H]2O)s1` (stereo partly drawn) [Example A120], the inhibition at 0.01 µM is 4 ± 9.2% and the inhibition at 0.1 µM stood at 22.8 ± 8.1%.

Consider `CCCOCCc1ccc(Cc2cc3c(cc2Cl)CO[C@]32O[C@H](C)[C@@H](O)[C@H](O)[C@H]2O)s1` [Example A116, (1S,3′R,4′S,5′S,6′R)-5-chloro-6-((5-(2-propoxyethyl)thiophene-2-yl)methyl)-6′-methyl-3′,4′,5′,6′-tetrahydro-3H-spiro[isobenzofuran-1,2′-pyran]-3′,4′,5′-triol], for which the inhibition at 0.01 µM came out at 89.4 ± 1.5% and the inhibition at 0.1 µM came to 62.3 ± 6%.

Consider `COc1ccc(Cc2cc3c(cc2Cl)CO[C@]32O[C@H](C)[C@@H](O)[C@H](O)[C@H]2O)cc1` [Example A25, (1S,3′R,4′S,5′S,6′R)-6′-methyl-6-(4-methoxybenzyl)-5-chloro-3′,4′,5′,6′-tetrahydro-3H-spiro[isobenzofuran-1,2′-pyran]-3′,4′,5′-triol], for which the inhibition at 0.01 µM amounted to 91.8 ± 5.1% and the inhibition at 0.1 µM is 101 ± 2.2%.

(Values after US10550143B2, “C,O-spiro aryl glycoside compounds, preparation therefor and use thereof” (SHANGHAI INSTITUTE OF MATERIA MEDICA, CHINESE ACADEMY OF …, priority 2015, dated 2020).)
